Experimental data: paper PMC6222545, “Evaluating Marine Cyanobacteria as a Source for CNS Receptor Ligands” (Molecules : A Journal of Synthetic Chemistry and Natural …, 2018)

Assays:
[1] = biological target: T1, 5-HT2C (Homo sapiens, UniProt P28335); test: PDSP radioligand competitive binding, 5-HT2C
T1 sequence (P28335 33-458): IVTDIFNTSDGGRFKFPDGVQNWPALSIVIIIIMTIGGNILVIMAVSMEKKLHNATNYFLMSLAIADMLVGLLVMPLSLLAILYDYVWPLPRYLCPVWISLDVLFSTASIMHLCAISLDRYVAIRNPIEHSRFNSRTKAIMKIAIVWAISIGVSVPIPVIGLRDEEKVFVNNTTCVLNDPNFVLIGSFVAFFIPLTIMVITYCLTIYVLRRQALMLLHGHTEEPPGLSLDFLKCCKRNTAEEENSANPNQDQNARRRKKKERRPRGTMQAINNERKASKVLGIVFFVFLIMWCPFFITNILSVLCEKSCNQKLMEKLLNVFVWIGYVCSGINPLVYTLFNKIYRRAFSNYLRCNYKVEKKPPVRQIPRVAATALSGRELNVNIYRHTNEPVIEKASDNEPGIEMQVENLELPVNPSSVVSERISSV
Experimental: (§1) Prior to screening, cyanobacterial samples are extracted exhaustively in a solution of dichloromethane and methanol, then the extract is subjected to column chromatography using the solvent step gradient illustrated in Figure 1 to create nine fractions. The polarities of the solvents in this step gradient increase linearly with each fraction. A sample of each fraction and the crude is prepared and sent to the NIMH Psychoactive Drug Screening Program (PDSP) for screening against a panel of ~50 receptor including 5-HTRs, DARs, MATs, σRs, and other CNS receptors.
(§2) From the extracts of 37 cyanobacterial field collections from Panama and Curacao, 19 crude extracts and 301 fractions were sent to PDSP for CNS screening. Due to sample size requirements not all fractions created are sent for screening, resulting in a lower number of total fractions screened compared to the theoretical amount of 370 fractions and crudes. […] Data analysis of results from these screens is presented herein.
(§3) A cyanobacterial biomass collected at Isla Mina, Panama was extracted exhaustively with CH2Cl2-MeOH (2:1) to afford 3.3 g of crude extract given the identification code DUQ0008. This extract was fractionated to yield nine fractions (A–I). The crude extract, along with the nine fractions were submitted to PDSP for screening. […]

[2] = biological target: T2, σ2R (Rattus norvegicus, UniProt Q5U3Y7); test: PDSP radioligand competitive binding, σ2R
T2 sequence (Q5U3Y7 1-176): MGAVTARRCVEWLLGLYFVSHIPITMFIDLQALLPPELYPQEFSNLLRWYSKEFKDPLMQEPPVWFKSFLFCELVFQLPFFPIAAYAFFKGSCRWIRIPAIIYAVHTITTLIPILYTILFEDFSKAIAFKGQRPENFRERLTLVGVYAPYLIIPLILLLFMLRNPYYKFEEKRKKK
Experimental: as §1, §2, §3

[3] = tested on: 5-HTRs or any other receptor; test: PDSP primary radioligand binding screen, CNS receptor panel; design: dose or concentration left out as unconfirmed; settings: data not shown
Experimental: as §1, §2
IC50 determinations/receptor binding profiles were generously provided by the National Institute of Mental Health’s Psychoactive Drug Screening Program, Contract # HHSN-271-2018-00023-C (NIMH PDSP). The NIMH PDSP is Directed by Bryan L. Roth MD, PhD at the University of North Carolina at Chapel Hill and Project Officer Jamie Driscoll at NIMH, Bethesda MD, USA. Detailed information regarding the assay protocol can be found at http://pdspdb.unc.edu/pdspWeb/.

[4] = pure compound resubmitted to PDSP

| Structure (SMILES) | inhibition of binding at 5-HT2C ([1]; primary binding, pure compound) | Ki [1, 4] [nM] | affinity for the σ2R ([2]; in words) | Ki [2, 4] [nM] | inhibition of radioligand binding at 5-HTRs or any other receptor [3] [%] |
| --- | --- | --- | --- | --- | --- |
| C#CCCC[C@H]1OC(=O)[C@H](C(C)C)N(C)C(=O)[C@@H]2CCCN2C(=O)[C@H]([C@@H](C)CC)OC(=O)[C@H](C(C)C)N(C)C(=O)[C@H](C(C)C)NC(=O)[C@H]1C [compound 1, veraguamide C] | greater than 50% | > 10000 | moderate and selective affinity | 316 | – |
| CCCCCCCCC/C(C)=C/C(C/C=C/CCC(=O)OCC)OC (stereo not shown) [compound 2] | – | – | – | – | < 50 |
| CCCCCCC[C@H]1C[C@@H]1CCC(=O)OCC [compound 3] | – | – | – | – | < 50 |
| C=C(CCCCCCCCCCCCC)CCCC(=O)O/C=C/COC(C)=O [compound 4, propenediester] | – | – | – | – | < 50 |
